In patent US9296704B2, “Substituted pyrimidines as protein kinase inhibitors” (CELGENE AVILOMICS RESEARCH, INC., priority 2007, dated 2016):

How the values were obtained:
ErbB2 = ErbB2 (Homo sapiens, UniProt P04626); experiment: Z'-LYTE biochemical assay, ErbB2 kinase inhibition
Description: Compounds of the present invention were assayed as inhibitors of one or more of ErbB1, ErbB2, and/or ErbB4 in a manner substantially similar to the method described by Invitrogen Corp (Invitrogen Corporation, 1600 Faraday Avenue, Carlsbad, Calif., CA; http://www.invitrogen.com/downloads/Z-LYTE_Brochure—1205.pdf) using the Z′-LYTE™ biochemical assay procedure or similar biochemical assay. The Z′-LYTE™ biochemical assay employs a fluorescence-based, coupled-enzyme format and is based on the differential sensitivity of phosphorylated and non-phosphorylated peptides to proteolytic cleavage.

ErbB1 = ErbB1 (Homo sapiens, UniProt P00533); experiment: Z'-LYTE biochemical assay, ErbB1 kinase inhibition
ErbB1, sequence (P00533 25-1210): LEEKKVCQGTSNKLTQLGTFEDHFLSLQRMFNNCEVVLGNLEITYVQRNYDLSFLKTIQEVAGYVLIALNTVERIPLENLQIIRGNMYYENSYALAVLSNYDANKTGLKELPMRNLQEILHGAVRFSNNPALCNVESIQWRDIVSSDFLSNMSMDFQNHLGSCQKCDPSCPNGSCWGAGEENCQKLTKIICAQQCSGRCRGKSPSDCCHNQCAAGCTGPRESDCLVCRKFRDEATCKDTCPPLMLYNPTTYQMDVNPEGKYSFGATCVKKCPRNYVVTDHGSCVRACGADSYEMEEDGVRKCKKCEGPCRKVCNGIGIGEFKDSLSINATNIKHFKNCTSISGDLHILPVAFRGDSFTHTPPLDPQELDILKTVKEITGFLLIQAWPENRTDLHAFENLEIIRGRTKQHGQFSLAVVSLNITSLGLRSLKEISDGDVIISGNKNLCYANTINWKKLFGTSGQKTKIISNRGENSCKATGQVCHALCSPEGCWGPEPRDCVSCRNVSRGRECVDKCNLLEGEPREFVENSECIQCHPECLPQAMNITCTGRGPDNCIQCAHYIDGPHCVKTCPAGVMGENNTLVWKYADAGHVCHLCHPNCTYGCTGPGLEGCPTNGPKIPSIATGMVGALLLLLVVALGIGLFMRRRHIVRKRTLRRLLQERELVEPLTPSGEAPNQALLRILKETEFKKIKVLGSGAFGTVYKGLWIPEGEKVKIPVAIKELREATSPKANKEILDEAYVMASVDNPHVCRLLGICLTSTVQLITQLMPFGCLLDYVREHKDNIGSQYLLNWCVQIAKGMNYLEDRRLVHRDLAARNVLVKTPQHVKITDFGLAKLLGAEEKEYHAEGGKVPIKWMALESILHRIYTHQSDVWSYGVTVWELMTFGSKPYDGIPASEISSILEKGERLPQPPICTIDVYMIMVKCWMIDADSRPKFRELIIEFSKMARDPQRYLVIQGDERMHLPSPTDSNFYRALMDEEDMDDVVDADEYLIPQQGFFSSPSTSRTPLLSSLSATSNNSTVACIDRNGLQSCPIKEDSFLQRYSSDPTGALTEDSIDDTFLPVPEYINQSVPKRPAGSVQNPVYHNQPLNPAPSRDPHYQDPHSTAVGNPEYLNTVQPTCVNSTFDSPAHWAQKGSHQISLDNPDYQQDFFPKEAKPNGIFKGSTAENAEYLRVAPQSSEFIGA
Outline: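 Fluorescence-based coupled-enzyme Z′-LYTE format: kinase phosphorylation of a peptide substrate is read by differential protease cleavage of phosphorylated versus non-phosphorylated peptide.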

BTK [1] = molecular target: T1, BTK (Homo sapiens, UniProt Q06187); experiment: Omnia assay for potency against BTK; assay type: biochemical; settings: read-out: BTK Inhibition
T1 sequence (Q06187 whole entry): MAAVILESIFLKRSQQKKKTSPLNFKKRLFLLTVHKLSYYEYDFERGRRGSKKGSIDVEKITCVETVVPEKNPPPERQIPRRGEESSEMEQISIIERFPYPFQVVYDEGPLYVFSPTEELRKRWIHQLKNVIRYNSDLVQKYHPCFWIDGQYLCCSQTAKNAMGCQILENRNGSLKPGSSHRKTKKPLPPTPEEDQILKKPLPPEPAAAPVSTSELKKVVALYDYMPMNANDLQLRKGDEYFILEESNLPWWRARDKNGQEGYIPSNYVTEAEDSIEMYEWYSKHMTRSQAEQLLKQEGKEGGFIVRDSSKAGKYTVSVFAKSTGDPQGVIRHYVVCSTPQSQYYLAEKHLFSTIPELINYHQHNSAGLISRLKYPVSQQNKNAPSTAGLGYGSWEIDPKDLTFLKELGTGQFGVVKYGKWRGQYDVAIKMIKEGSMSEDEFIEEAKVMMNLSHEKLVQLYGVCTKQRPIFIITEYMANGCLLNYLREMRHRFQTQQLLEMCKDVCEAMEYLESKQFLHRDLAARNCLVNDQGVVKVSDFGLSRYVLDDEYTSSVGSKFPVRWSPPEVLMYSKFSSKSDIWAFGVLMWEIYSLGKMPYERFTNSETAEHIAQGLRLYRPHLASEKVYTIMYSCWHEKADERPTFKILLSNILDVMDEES
Outline: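 BTK (5 nM) was pre-incubated 30 min at 27° C with serially diluted compounds in Tris pH 7.5/MgCl2 buffer, then started with […] and Y5-Sox peptide 10 mM (ATP KMapp ~36 mM). Fluorescence (ex360/em485) was read continuously over 60 min. IC50 came from initial velocities using a variable-slope fit.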

[2] = test system: BTK signaling in Ramos cells; experiment: BTK Ramos cellular assay (PLCγ2 phosphorylation); assay type: cell-based; settings: Homo sapiens; for IC50: Ramos cells, PLCγ2 phosphorylation, read-out: BTK Inhibition
BTK in Ramos cells = experiment: Washout experiment with Ramos cells for BTK activity; assay type: cell-based, human; settings: for BTK Inhibition Type: Ramos washout assay, 100 nM compound for 1 hour
Description: Ramos cells were serum starved for one hour in RPMI media+1% glutamine at 37° C. After starvation, Ramos cells were treated with 100 nM compound diluted in serum free RPMI media for 1 hour. After compound treatment, the media was removed and cells were washed with compound-free media. Subsequently, Ramos cells were washed every 2 hours and resuspended in fresh compound-free media. Cells were collected at specified timepoints, treated with 1 ug anti-human IgM (Southern Biotech cat #2022-01) for 10 minutes on ice to induce BCR signaling and then washed in PBS. Ramos cells were then lysed in Cell Extraction Buffer (Invitrogen FNN0011) supplemented with Roche complete protease inhibitor tablets (Roche 11697498001) and phosphatase inhibitors (Roche 04 906 837 001) and 18 ug total protein lysate was loaded in each lane. Inhibition of BTK kinase activity was assayed by measuring its substrate (PLCγ2) phosphorylation by western blot with phospho-specific antibodies from Cell Signaling Technologies cat#3871. FIG. 10 depicts the results of compound I-13 in the washout experiment at 0 hour, 4 hour, 6 hour, and 8 hour time points.

BTK [3] = molecular target: T1, BTK; experiment: Mass spectrometry for BTK (intact protein); assay type: binding; settings: 10× excess, 1 hr, MALDI
Description: Intact BTK was incubated for 1 hr at a 10× fold excess of compound I-63 or I-66 to protein. Aliquots (2 ul) of the samples were diluted with 10 ul of 0.1% TFA prior to micro C4 ZipTipping directly onto the MALDI target using Sinapinic acid as the desorption matrix (10 mg/ml in 0.1% TFA:Acetonitrile 20:80). The top panels of FIGS. 12 and 13 show the mass spec trace of the intact BTK protein (m/z 81,169 Da). The bottom panels show the mass spec trace when BTK was incubated with compound I-63 (mw 424.5) or compound I-66 (mw 425.5) in FIGS. 12 and 13, respectively.

ErbB2, sequence (P04626 23-1255): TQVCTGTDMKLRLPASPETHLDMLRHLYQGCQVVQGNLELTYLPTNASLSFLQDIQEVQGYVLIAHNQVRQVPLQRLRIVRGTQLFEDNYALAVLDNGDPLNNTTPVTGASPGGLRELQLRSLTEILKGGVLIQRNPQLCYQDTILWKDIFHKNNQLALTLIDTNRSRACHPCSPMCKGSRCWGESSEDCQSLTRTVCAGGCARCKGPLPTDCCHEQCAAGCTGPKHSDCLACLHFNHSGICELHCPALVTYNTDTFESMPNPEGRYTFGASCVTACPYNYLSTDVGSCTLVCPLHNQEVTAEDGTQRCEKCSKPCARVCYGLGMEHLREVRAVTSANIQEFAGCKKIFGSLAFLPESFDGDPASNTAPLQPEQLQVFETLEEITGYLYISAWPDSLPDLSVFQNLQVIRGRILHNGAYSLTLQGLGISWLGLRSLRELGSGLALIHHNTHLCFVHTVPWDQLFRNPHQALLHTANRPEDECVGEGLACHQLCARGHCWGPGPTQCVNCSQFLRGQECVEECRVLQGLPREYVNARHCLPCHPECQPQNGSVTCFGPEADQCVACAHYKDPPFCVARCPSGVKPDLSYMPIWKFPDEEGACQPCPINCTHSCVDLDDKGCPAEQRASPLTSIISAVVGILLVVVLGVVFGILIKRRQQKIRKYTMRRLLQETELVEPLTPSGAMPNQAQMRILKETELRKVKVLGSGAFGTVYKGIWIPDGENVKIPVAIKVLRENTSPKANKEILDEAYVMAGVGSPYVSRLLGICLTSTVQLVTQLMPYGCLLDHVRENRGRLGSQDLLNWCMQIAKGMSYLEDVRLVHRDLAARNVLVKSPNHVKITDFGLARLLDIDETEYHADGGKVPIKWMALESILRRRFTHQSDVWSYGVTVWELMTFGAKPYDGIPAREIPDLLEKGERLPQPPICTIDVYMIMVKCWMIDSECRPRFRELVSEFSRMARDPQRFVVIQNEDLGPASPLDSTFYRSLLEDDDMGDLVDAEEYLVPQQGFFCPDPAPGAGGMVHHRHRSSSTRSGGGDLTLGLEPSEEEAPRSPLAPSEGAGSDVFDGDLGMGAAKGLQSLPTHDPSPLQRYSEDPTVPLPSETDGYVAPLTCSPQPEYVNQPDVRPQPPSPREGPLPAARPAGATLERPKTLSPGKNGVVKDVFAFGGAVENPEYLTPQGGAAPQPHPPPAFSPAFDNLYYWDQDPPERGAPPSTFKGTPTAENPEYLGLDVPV

IC50 (BTK [1]) | IC50 [2] | Structure (SMILES) | BTK Inhibition Type (BTK in Ramos cells) | also measured
10 to 100 nM | – | C=CC(=O)Nc1cccc(Nc2cc(Nc3cccc(Br)c3)ncn2)c1 [I-1, N-{3-[6-(3-bromophenylamino)-pyrimidin-4-ylamino]-phenyl}-2-propenamide] | – | inhibition at 0.1 µM (ErbB2; @ 100 nM): 61%; inhibition at 1 µM (ErbB2): 76%; inhibition at 0.01 µM (ErbB1; @ 10 nM): 99%
≤ 10 nM | ≤ 10 nM | C=CC(=O)Nc1cccc(Nc2cc(Nc3ccc(Oc4ccccc4)cc3)ncn2)n1 [I-63] | irreversible | modification of intact BTK by mass shift (BTK [3]): complete modification of BTK
≤ 10 nM | 10 to 100 nM | CN(C)C/C=C/C(=O)Nc1cccc(Nc2cc(Nc3ccc(Oc4ccccc4)cc3)ncn2)n1 [I-64, (E)-4-(dimethylamino)-N-(6-(6-(4-phenoxyphenylamino)pyrimidin-4-ylamino)pyridine-2-yl)but-2-enamide] | irreversible | –
≤ 10 nM | – | C=CC(=O)Nc1cccc(Nc2cc(Oc3cccc(C)c3)ncn2)n1 [I-65] | reversible | –
≤ 10 nM | – | C=CC(=O)Nc1cccc(Nc2cc(Oc3ccc(Oc4ccccc4)cc3)ncn2)n1 [I-66] | irreversible | modification of intact BTK by mass shift (BTK [3]): complete modification of BTK
≤ 10 nM | ≤ 10 nM | C=CC(=O)N(C)c1cccc(Nc2cc(Nc3ccc(Oc4ccccc4)cc3)ncn2)n1 [I-78, N-methyl-N-(6-(6-(4-phenoxyphenylamino)pyrimidin-4-ylamino)pyridin-2-yl)acrylamide] | – | –
≤ 10 nM | ≤ 10 nM | CN(C)C/C=C/C(=O)N(C)c1cccc(Nc2cc(Nc3ccc(Oc4ccccc4)cc3)ncn2)n1 [I-79, (E)-4-(dimethylamino)-N-methyl-N-(6-(6-(4-phenoxyphenylamino)pyrimidin-4-ylamino)pyridine-2-yl)but-2-enamide] | – | –
≤ 10 nM | ≤ 10 nM | Cc1cccc(Oc2cc(Nc3cccc(NC(=O)/C=C/CN(C)C)n3)ncn2)c1 [I-81] | – | –
≤ 10 nM | – | C=CC(=O)Nc1cccc(Nc2cc(Nc3ccccc3)ncn2)n1 [I-94] | – | –

Structure (SMILES) | IC50 (BTK [1]) | IC50 [2] | BTK Inhibition Type (BTK in Ramos cells) | also measured
C=CC(=O)Nc1cccc(Nc2cc(Nc3ccc(Oc4ccccc4)cc3)ncn2)c1 [I-13, N-{3-[6-(4-phenoxyphenylamino)-pyrimidin-4-ylamino]phenyl}-2 propenamide] | ≤ 10 nM | 10 to 100 nM | irreversible | inhibition at 1 µM (ErbB2): 98%; inhibition at 1 µM ([2]; Ramos, at 1 μM, 1 hour): 85%; inhibition at 1 µM (ErbB1; @ 1 μM): 92%; inhibition of BTK after washout over time (BTK in Ramos cells; Ramos cells, 100 nM, 0, 4, 6 and 8 hour time points): maintains inhibition of BTK for 8 hours
